Measurements as given in US20110237566A1, “Therapeutic Macrolide Compounds and Their Use” (MERLION PHARMACEUTICALS PTE LTD, priority 2008, published 2011).

Key:
[1] = Microsomal stability assay; type: in vitro ADME; settings: human, human liver microsomes, pH 7.4, human liver microsomes, 37° C.; for half-life at 50 μM: read-out: T1/2, 50 μm microsomal stability assay
Procedure: 50 μL test sample (50 mM), 25 μL human liver microsomes (20 mg/ml, BD Gentest, catalog no. 452161), 281 μL potassium phosphate buffer (100 mM, pH 7.4), 5 μL NaDPH regenerating system, solution B (BD Biosciences, catalog no. 451200), and 114 μL of water were pre-incubated for 5 min at 37° C. The reaction was initiated by the addition of 25 μL NaDPH regenerating system, solution A (BD Biosciences, catalog no. 451220). After an incubation period of 0, 15, 30, and 60 min at 37° C., 100 μL of the reaction mixture was transferred to an eppendorf tube, followed by addition of 100 μL chilled acetonitrile to quench the reaction. The sample was then centrifuged at 14,000 rpm for 5 min. The supernatant was submitted for LCMS analysis.

[2] = test system: HL60 human acute myelocytic leukemia (AML) cell; experiment: Growth inhibition (cytotoxicity), HL60A assay, Cell Titer Glo; type: cell-based; settings: HL-60, 72 h, HL60 cells, 72 hour incubation
Procedure: (§1) The cytotoxicity of each of the MC compounds as described herein was evaluated in the following cell types: A549 human alveolar epithelial cell, PC3 human prostate carcinoma cell, COLO205 human colon adenocarcinoma cell, HEPG2 human hepatoma, OVCAR3 human ovary adenocarcinoma cell, and HL60 human acute myelocytic leukemia (AML) cell.
(§2) A549, PC3, COLO205 and HEPG2 cells were cultured in DMEM (Invitrogen Corporation) with 10% fetal bovine serum, whereas OVCAR3 and HL60 were cultured in the same medium but with 20% fetal bovine serum. For cytotoxocoty measurements the cells were seeded in 96 or 384 well tissue culture treated microtitre plates overnight. Compounds were diluted in appropriate buffers and added to the cells the next day. Following a further 72 hour incubation, cell viability was determined using Cell Titer Glo (Promega Corporation) according to the manufacturers' instructions, and the luminescence measured in Luminoskan Ascent (Thermo Fisher Scientific Inc.).

[3] = test system: PC3 human prostate carcinoma cell; experiment: Growth inhibition (cytotoxicity), PC3A assay, Cell Titer Glo; type: cell-based; settings: PC-3, 72 h, PC3 cells, 72 hour incubation
Procedure: as §1, §2

[4] = test system: COLO205 human colon adenocarcinoma cell; experiment: Growth inhibition (cytotoxicity), COLO205 assay, Cell Titer Glo; type: cell-based; settings: COLO 205, 72 h, COLO205 cells, 72 hour incubation
Procedure: as §1, §2

[5] = test system: OVCAR3 human ovary adenocarcinoma cell; experiment: Growth inhibition (cytotoxicity), OVCAR3 assay, Cell Titer Glo; type: cell-based; settings: OVCAR3 cells, 72 hour incubation
Procedure: as §1, §2

[6] = test system: A549 human alveolar epithelial cell; experiment: Growth inhibition (cytotoxicity), A549 assay, Cell Titer Glo; type: cell-based; settings: A549, 72 h, A549 cells, 72 hour incubation
Procedure: as §1, §2

HEPG2 human hepatoma = experiment: Growth inhibition (cytotoxicity), HEPG2A assay, Cell Titer Glo; type: cell-based; settings: HEPG2 cells, 72 hour incubation
Procedure: as §1, §2

[7] = Stability determination at PBS pH7.2; type: physicochemical; settings: PBS pH 7.2, pH 7.2, PBS pH7.2, 37° C.; read-out: T1/2, PBS buffer stability assay
Procedure: Around 0.1 mg of the dried sample was placed in a 2-mL vial, added with 1 mL of PBS pH7.2 and then mixed using a Vortex mixer. The mixture was filtered through a 4 mm Nylon filter with 0.2 μm pore size and the filtrate collected in an hplc vial. The vial was placed in an hplc autosampler maintained at 37° C. just before injection (time=0 h). The stability of the sample was calculated by determining the amount left in solution at specific time intervals. This study was carried out in three trials with the buffer solution as a blank.

Compound | half-life at 50 μM [1] [min] | IC50 [3] [nM] | IC50 ([5]; Homo sapiens, OVCAR-3, 72 h) [nM] | other results
CC[C@H](OC)[C@@H](C)[C@H]1O[C@@H]1C(NCc1ccc(F)cc1)C(C)(O)/C=C/C=C(\C)C1OC(=O)C[C@H](O)CC[C@@](C)(O)[C@@H](OC(C)=O)/C=C/[C@@H]1C.O=CO (single isomer, unassigned) [MC-006c] | > 30 | ≤ 100 | ≤ 100 | IC50 [2]: ≤ 100 nM; IC50 [4]: ≤ 100 nM
CC[C@H](OC)[C@@H](C)[C@H]1O[C@@H]1C(NCc1ccncc1)C(C)(O)/C=C/C=C(\C)C1OC(=O)C[C@H](O)CC[C@@](C)(O)[C@@H](OC(C)=O)/C=C/[C@@H]1C (single isomer, unassigned) [MC-007b] | – | – | – | IC50 [2]: ≤ 100 nM; IC50 [6]: ≤ 1000 nM
CC[C@H](OC)[C@@H](C)[C@H]1O[C@@H]1C(NCCCN1CCOCC1)C(C)(O)/C=C/C=C(\C)C1OC(=O)C[C@H](O)CC[C@@](C)(O)[C@@H](OC(C)=O)/C=C/[C@@H]1C.O=CO (single isomer, unassigned) [MC-009b] | > 30 | – | – | –
CC[C@H](OC)[C@@H](C)[C@H]1O[C@@H]1C(NCc1ccc(Br)cc1)C(C)(O)/C=C/C=C(\C)C1OC(=O)C[C@H](O)CC[C@@](C)(O)[C@@H](OC(C)=O)/C=C/[C@@H]1C.O=CO (single isomer, unassigned) [MC-014b] | > 30 | – | – | –
CC[C@H](OC)[C@@H](C)[C@H]1O[C@@H]1C(NCc1ccc(Cl)cc1)C(C)(O)/C=C/C=C(\C)C1OC(=O)C[C@H](O)CC[C@@](C)(O)[C@@H](OC(C)=O)/C=C/[C@@H]1C (single isomer, unassigned) [MC-016a] | – | ≤ 100 | ≤ 100 | IC50 [2]: ≤ 100 nM; IC50 [4]: ≤ 100 nM; IC50 (HEPG2 human hepatoma; Homo sapiens, HepG2, 72 h): ≤ 100 nM
CC[C@H](OC)[C@@H](C)[C@H]1O[C@@H]1C(NCc1ccc2c(c1)OCO2)C(C)(O)/C=C/C=C(\C)C1OC(=O)C[C@H](O)CC[C@@](C)(O)[C@@H](OC(C)=O)/C=C/[C@@H]1C.O=CO (single isomer, unassigned) [MC-030a] | > 30 | ≤ 100 | ≤ 100 | –
CC[C@H](OC)[C@@H](C)[C@H]1O[C@@H]1C(NCc1ccc2[nH]ccc2c1)C(C)(O)/C=C/C=C(\C)C1OC(=O)C[C@H](O)CC[C@@](C)(O)[C@@H](OC(C)=O)/C=C/[C@@H]1C.O=CO (single isomer, unassigned) [MC-043a] | > 30 | – | – | –
CC[C@H](OC)[C@@H](C)[C@H]1O[C@@H]1C(NCc1ccc(Cl)nc1)C(C)(O)/C=C/C=C(\C)C1OC(=O)C[C@H](O)CC[C@@](C)(O)[C@@H](OC(C)=O)/C=C/[C@@H]1C.O=CO (single isomer, unassigned) [MC-046a] | > 30 | – | – | –
CC[C@H](OC)[C@@H](C)[C@H]1O[C@@H]1C(NCc1ccc(C)c(F)c1)C(C)(O)/C=C/C=C(\C)[C@H]1OC(=O)C[C@H](O)CC[C@@](C)(O)[C@@H](OC(C)=O)/C=C/[C@@H]1C.O=CO (stereo in doubt) [MC-031] | > 30 | ≤ 100 | ≤ 100 | half-life at 0.1 mg/mL [7]: > 30 min
CC[C@H](OC)[C@@H](C)C1O[C@@H]1C(NCc1ccc(Cl)nc1)C(C)(O)/C=C/C=C(\C)[C@H]1OC(=O)C[C@H](O)CC[C@@](C)(O)[C@@H](OC(C)=O)/C=C/[C@@H]1C (stereo in doubt) [MC-046] | – | – | – | half-life at 0.1 mg/mL [7]: > 30 min
CC[C@H](OC)[C@@H](C)C1O[C@@H]1C(N(C)Cc1ccc(Cl)cc1)C(C)(O)/C=C/C=C(\C)[C@H]1OC(=O)C[C@H](O)CC[C@@](C)(O)[C@@H](OC(C)=O)/C=C/[C@@H]1C (stereo in doubt) [MC-047] | – | – | – | half-life at 0.1 mg/mL [7]: > 30 min
CC[C@H](OC)[C@@H](C)[C@H]1O[C@@H]1C(NCc1ccc(OC)cc1)C(C)(O)/C=C/C=C(\C)C1OC(=O)C[C@H](O)CC[C@@](C)(O)[C@@H](OC(C)=O)/C=C/[C@@H]1C (stereo partly shown) [MC-005] | 20 | – | ≤ 100 | IC50 [5]: 61 nM; IC50 (HEPG2 human hepatoma): 57 nM; IC50 (HEPG2 human hepatoma; Homo sapiens, HepG2, 72 h): ≤ 100 nM
CC[C@H](OC)[C@@H](C)[C@H]1O[C@@H]1C(NCc1ccncc1)C(C)(O)/C=C/C=C(\C)C1OC(=O)C[C@H](O)CC[C@@](C)(O)[C@@H](OC(C)=O)/C=C/[C@@H]1C (stereo partly shown) [MC-007c] | – | – | – | IC50 [2]: ≤ 100 nM; IC50 [6]: ≤ 1000 nM; IC50 [4]: ≤ 100 nM
CC[C@H](OC)[C@@H](C)[C@H]1O[C@@H]1C(NCc1ccc(F)c(F)c1)C(C)(O)/C=C/C=C(\C)[C@H]1OC(=O)C[C@H](O)CC[C@@](C)(O)[C@@H](OC(C)=O)/C=C/[C@@H]1C.O=CO (stereo partly shown) [MC-029] | > 30 | ≤ 100 | ≤ 100 | –
CC[C@H](OC)[C@@H](C)[C@H]1O[C@@H]1C(NCc1ccc2c(c1)OCO2)C(C)(O)/C=C/C=C(\C)C1OC(=O)C[C@H](O)CC[C@@](C)(O)[C@@H](OC(C)=O)/C=C/[C@@H]1C (stereo partly shown) [MC-030] | – | – | – | half-life at 0.1 mg/mL [7]: > 30 min
CC[C@H](OC)[C@@H](C)[C@H]1O[C@@H]1C(NCc1ccc(Cl)cc1F)C(C)(O)/C=C/C=C(\C)[C@H]1OC(=O)C[C@H](O)CC[C@@](C)(O)[C@@H](OC(C)=O)/C=C/[C@@H]1C.O=CO (stereo partly shown) [MC-032] | > 30 | ≤ 100 | ≤ 100 | –
CC[C@H](OC)[C@@H](C)[C@H]1O[C@@H]1C(NCC1CCCCCC1)C(C)(O)/C=C/C=C(\C)[C@H]1OC(=O)C[C@H](O)CC[C@@](C)(O)[C@@H](OC(C)=O)/C=C/[C@@H]1C.O=CO (stereo partly shown) [MC-034] | – | – | – | half-life at 5 μM ([1]; 5 μm, read-out: T1/2, 5 μm microsomal stability assay): 6.1 min; IC50 [6]: ≤ 1000 nM
CC[C@H](OC)[C@@H](C)[C@H]1O[C@@H]1C(NCc1ccc(N2CCOCC2)cc1)C(C)(O)/C=C/C=C(\C)C1OC(=O)C[C@H](O)CC[C@@](C)(O)[C@@H](OC(C)=O)/C=C/[C@@H]1C (stereo partly shown) [MC-037] | – | – | – | half-life at 0.1 mg/mL [7]: > 30 min
CC[C@H](OC)[C@@H](C)[C@H]1O[C@@H]1C(NCc1ccc(N2CCOCC2)cc1)C(C)(O)/C=C/C=C(\C)C1OC(=O)C[C@H](O)CC[C@@](C)(O)[C@@H](OC(C)=O)/C=C/[C@@H]1C (stereo partly shown) [MC-037d] | > 30 | – | – | –
CC[C@H](OC)[C@@H](C)[C@H]1O[C@@H]1C(NCc1ccc2[nH]ccc2c1)C(C)(O)/C=C/C=C(\C)C1OC(=O)C[C@H](O)CC[C@@](C)(O)[C@@H](OC(C)=O)/C=C/[C@@H]1C (stereo partly shown) [MC-043] | – | – | – | half-life at 0.1 mg/mL [7]: > 30 min
CC[C@H](OC)[C@@H](C)[C@H]1O[C@@H]1C(NCc1ccc(Cl)c(Cl)c1)C(C)(O)/C=C/C=C(\C)C1OC(=O)C[C@H](O)CC[C@@](C)(O)[C@@H](OC(C)=O)/C=C/[C@@H]1C (stereo partly shown) [MC-059] | – | ≤ 100 | ≤ 100 | IC50 [4]: ≤ 100 nM; IC50 (HEPG2 human hepatoma; Homo sapiens, HepG2, 72 h): ≤ 100 nM
